Common to all, as to assay: NCI tumour cell line growth inhibition, 48 h
In test [1] the test system is NCI/ADR-RES ovarian.
Test [2] deals with SF-268 CNS.
The test system of test [3] is TK-10 renal.
In test [4] the test system is A498 renal.
In test [5] the test system is RXF 393 renal.
The test system of test [6] is IGROV1 ovarian.
Test [7] concerns RPMI-8226 leukemia.
Test [8] relates to HL-60(TB) leukemia.
Test [9] relates to COLO 205 colon.
For test [10], the system named is MOLT-4 leukemia.

SMILES strings stand for the structures.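 96-well plates; 48 h exposure; 5 concentrations. Endpoints by linear interpolation between flanking doses. Not reached: highest tested concentration assigned. GI50 = concentration required for 50% inhibition of growth. At the TGI there is no net growth.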 A value given as a limit tells only on which side of the number the result lay.

`CCN(CC)/N=C\c1c2ccccc2cc2ccccc12`: the TGI in test [1] was more than 100 µM; in test [2], more than 100 µM; in test [3] it was more than 100 µM; in test [4], more than 100 µM; in test [5], 57.3 µM; in [6], more than 100 µM. Besides, the TGI in test [7] is 77.1 µM; in test [8], more than 100 µM; in test [9], 53.5 µM; in [10] it was more than 100 µM.

Take `COc1ccc(NC(=O)CSC(=O)c2ccccc2)c(SCCSSCCSc2cc(OC)ccc2NC(=O)CSC(=O)c2ccccc2)c1`: the TGI in [1], in test [2], in test [3], in [4], in test [5] and in [6] was more than 100 µM each time. In addition, the TGI was more than 100 µM in test [7], more than 100 µM in test [8], 24.2 µM in test [9] and more than 100 µM in [10].

For the molecule `CCOP(=O)(OCC)/C(=C/n1c(=S)[nH]c2ccccc21)C(=O)OC`, the TGI in test [1], in test [2], in test [3], in test [4], in [5] and in [6] was more than 100 µM in each case. For the same molecule, the TGI in test [7], in test [8], in test [9] and in test [10] was more than 100 µM throughout. For the same molecule, in test [3], the GI50 is more than 100 µM.

Consider `CCCCCCCCCCCC(=O)N(CCCCCCCCC)CC(O)C(O)C(OC1OC(CO)C(O)C(O)C1O)C(O)CO` (stereo unspecified), for which the TGI was found to be 38.7 µM in test [1]; 39.3 µM in test [2]; 29.8 µM in test [3]; 39.5 µM in [4]; 50 µM in [5]; 33.6 µM in test [6]. Moreover, the TGI in test [7] is 57.1 µM; in test [8], 45.8 µM; in [9] it was 36.9 µM; in test [10] it was 40.3 µM.

For `N=C(N)SCc1nc(-c2ccc(Cl)cc2)no1`, the TGI in [1] was more than 100 µM; in test [2] it was more than 100 µM; in test [3] it was 40.8 µM; in [4] it was 32.3 µM; in [5], 25 µM; in [6], more than 100 µM. Also, the TGI was 26.8 µM in test [7], 37.1 µM in [8], 38.3 µM in [9] and 22.6 µM in test [10].

On to `COc1ccc(C2N(c3ccc(C)c(N=C=O)c3)C(=O)N3C(c4ccc(OC)cc4)N(c4ccc(C)c(N=C=O)c4)C(=O)N23)cc1` (stereo unspecified), for which the TGI in test [1], in [2], in test [3], in test [4], in test [5] and in test [6] was more than 100 µM throughout. For the same molecule, the TGI in test [7], in [8], in test [9] and in [10] was more than 100 µM in each case.

Turning to `CCCCCc1cc2cc3c(c(O)c2c(=O)[nH]1)C1(CCC3)C(=O)c2c(O)ccc(O)c2C1=O`, the TGI in [1], in test [2], in [3], in [4], in test [5] and in [6] was more than 100 µM each time. Further, the TGI in test [7], in [8], in [9] and in test [10] was more than 100 µM throughout.

On to `N#Cc1c(/C=C/c2ccccc2)c2c([nH]c1=S)CCCCC2`, for which the TGI in test [1], in test [2], in test [3], in test [4], in [5] and in test [6] was more than 100 µM each time. Further, the TGI in [7], in test [8], in test [9] and in [10] was more than 100 µM in each case.

Turning to `CCOC(=O)Cc1[nH]c(C(=O)c2ccccc2)cc1C(=O)c1ccccc1`, the TGI in test [1] is more than 100 µM; in [2], more than 100 µM; in test [3] it was more than 100 µM; in [4], more than 100 µM; in test [5] it was more than 100 µM; in test [6], more than 10 µM. The TGI is more than 10 µM in test [7], more than 100 µM in test [8], 48.7 µM in test [9] and 85.7 µM in test [10].

Consider `CC1(C)CCCCCC(O)C(O)CCC(C)(C)C1=O` (stereo unspecified), for which the TGI in test [1], in [2], in test [3], in test [4], in test [5] and in [6] was more than 100 µM in each case. The TGI in [7], in [8], in [9] and in [10] was more than 100 µM throughout.

On to `Cc1ccc(C)n1-c1ccccc1C1C=Cn2c(=O)oc3c(OC(C)C)c(OC(C)C)c(O)c1c32` (stereo unspecified), for which the TGI in test [1] was more than 100 µM; in test [2], more than 100 µM; in test [3] it was more than 100 µM; in test [4], more than 100 µM; in [5], 32.7 µM; in test [6], more than 100 µM. For the same molecule, the TGI in test [7] was more than 100 µM; in [8], more than 100 µM; in test [9] it was 30.9 µM; in test [10], more than 100 µM.

For the molecule `Oc1ccc(-c2nc3cc(C(F)(F)F)ccc3s2)cc1`, the TGI in [1] was 35.5 µM; in test [2] it was 30.8 µM; in test [3], 33.1 µM; in test [4] it was 32.6 µM; in [5], 33.2 µM; in test [6], 23.8 µM. The TGI in test [7] came to 35.4 µM; in test [8], 40.7 µM; in test [9] it was 33.1 µM; in test [10] it was 87.5 µM.
